Reference: US12655116B2, “Substituted isophthalic acid diamides” (Bayer Aktiengesellschaft, priority 2020, dated 2026)

Legend:
ABUTH [1] = test: Pre-emergence herbicidal action against ABUTH; format: in vivo, Abutilon theophrasti; details: for pest or weed control at 80 g/ha: Abutilon theophrasti, 504 h; for pest or weed control at 80 g/ha / Pre-emergence action against ABUTH (herbicidal activity): scored visually after 3 weeks vs untreated controls (100% = plants have died, 0% = like control plants), 80 g/ha; for Pre-emergence action against ABUTH (herbicidal activity in percent): dosage 20 g/ha, scored visually after 3 weeks vs untreated controls, 100% = plants have died, 0% = like control plants
Method in brief: (§1)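 Sandy loam pots, seeds covered with soil, then surface-treated with WP or EC formulations at 600–800 l/ha water plus 0.2% wetting agent. Greenhouse, 3 weeks. Percent damage vs untreated controls.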

AMARE [2] = test: Pre-emergence herbicidal action against AMARE; format: in vivo, Amaranthus retroflexus; details: for pest or weed control at 20 g/ha / pest or weed control at 80 g/ha: Amaranthus retroflexus, 504 h
Method in brief: as §1

MATIN [3] = test: Pre-emergence herbicidal action against MATIN; format: in vivo, Matricaria inodora; details: for pest or weed control at 80 g/ha: Tripleurospermum inodorum, 504 h
Method in brief: as §1

VERPE = test: Pre-emergence herbicidal action against VERPE; format: in vivo, Veronica persica; details: dosage 80 g/ha; for pest or weed control at 80 g/ha: Veronica persica, 504 h
Description: (§2) Seeds of monocotyledonous and dicotyledonous weed plants and crop plants are laid out in sandy loam soil in wood-fiber pots and covered with soil. The compounds of the invention, formulated in the form of wettable powders (WP) or as emulsion concentrates (EC), are then applied to the surface of the covering soil in the form of an aqueous suspension or emulsion at a water application rate equivalent to 600 to 800 l/ha, with addition of 0.2% wetting agent. After the treatment, the pots are placed in a greenhouse and kept under good growth conditions for the trial plants. The damage to the test plants is scored visually after a test period of 3 weeks by comparison with untreated controls (herbicidal activity in percent (%): 100% activity=the plants have died, 0% activity=like control plants). […] The tables below illustrate, in an illustrative manner, the post-emergence herbicidal action of the compounds of the invention, the herbicidal activity being stated in percent.

VIOTR = test: Pre-emergence herbicidal action against VIOTR; format: in vivo, Viola tricolor; details: dosage 80 g/ha; for pest or weed control at 80 g/ha: Viola tricolor, 504 h
Method in brief: as §1

DIGSA [4] = test: Pre-emergence herbicidal action against DIGSA; format: in vivo, Digitaria sanguinalis
Method in brief: as §1

ABUTH [5] = test: Post-emergence herbicidal action against ABUTH; format: in vivo, Abutilon theophrasti; details: visual assessment about 3 weeks after treatment vs untreated controls
Method in brief: (§3)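 Herbicidal action is a visual percentage rating (0% = as untreated control, 100% = plants dead) made roughly 3 weeks after treatment. Plants were grown in sandy loam in the greenhouse and treated at the one-leaf stage, 2 to 3 weeks post-sowing. Treatment was a foliar spray of wettable-powder or emulsion-concentrate formulations at 600 to 800 l/ha water plus 0.2% wetting agent.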

AMARE [6] = test: Post-emergence herbicidal action against AMARE; format: in vivo, Amaranthus retroflexus; details: 20 g/ha, visual assessment about 3 weeks after treatment, 100% = plants have died, 0% = like control plants; for pest or weed control at 20 g/ha: Amaranthus retroflexus, 504 h
Method in brief: as §3

ECHCG [7] = test: Post-emergence herbicidal action against ECHCG; format: in vivo, Echinochloa crus-galli; details: for pest or weed control at 20 g/ha: Echinochloa crus-galli, 504 h
Method in brief: as §3

SETVI [8] = test: Post-emergence herbicidal action against SETVI; format: in vivo, Setaria viridis; details: for pest or weed control at 20 g/ha: Setaria viridis, 504 h
Method in brief: as §3

DIGSA [9] = test: Post-emergence herbicidal action against DIGSA; format: in vivo, Digitaria sanguinalis
Method in brief: as §3

ALOMY [10] = test: Post-emergence herbicidal action against ALOMY; format: in vivo, Alopecurus myosuroides; details: dosage 20 g/ha, visual assessment about 3 weeks after treatment vs untreated controls
Protocol: (§4) Seeds of monocotyledonous and dicotyledonous weed and crop plants are laid out in sandy loam soil in wood-fiber pots, covered with soil and cultivated in a greenhouse under good growth conditions. 2 to 3 weeks after sowing, the test plants are treated at the one-leaf stage. The compounds of the invention, formulated in the form of wettable powders (WP) or as emulsion concentrates (EC), are then sprayed onto the green parts of the plants in the form of an aqueous suspension or emulsion at a water application rate equivalent to 600 to 800 l/ha, with addition of 0.2% wetting agent. After the test plants have been left to stand in the greenhouse under optimal growth conditions for about 3 weeks, the action of the preparations is assessed visually in comparison to untreated controls (herbicidal action in percent (%): 100% activity=the plants have died, 0% activity=like control plants). […] The tables below illustrate, in an illustrative manner, the post-emergence herbicidal action of the compounds of the invention, the herbicidal activity being stated in percent.

ALOMY [11] = test: Pre-emergence herbicidal action against ALOMY; format: in vivo, Alopecurus myosuroides; details: 80 g/ha, pre-emergence, scored visually after 3 weeks vs untreated controls (100% = plants have died, 0% = like control plants)
Description: as §2

AVEFA = test: Pre-emergence herbicidal action against AVEFA; format: in vivo, Avena fatua; details: 80 g/ha, pre-emergence
Description: as §2

ECHCG [12] = test: Pre-emergence herbicidal action against ECHCG; format: in vivo, Echinochloa crus-galli; details: 80 g/ha
Method in brief: as §1

SETVI [13] = test: Pre-emergence herbicidal action against SETVI; format: in vivo, Setaria viridis; details: dosage 80 g/ha
Method in brief: as §1

MATIN [14] = test: Post-emergence herbicidal action against MATIN; format: in vivo, Matricaria inodora; details: dosage 20 g/ha
Protocol: as §4

PHBPU = test: Post-emergence herbicidal action against PHBPU; format: in vivo, Pharbitis purpurea; details: dosage 20 g/ha
Protocol: as §4

[15] = 20 g/ha, scored visually after 3 weeks vs untreated controls, 100% = plants have died, 0% = like control plants
[16] = 80 g/ha, scored visually after 3 weeks vs untreated controls, 100% = plants have died, 0% = like control plants
[17] = 80 g/ha, scored visually after 3 weeks vs untreated controls (100% = plants have died, 0% = like control plants)

Structure (SMILES) | Pre-emergence action against AMARE in % (AMARE [2]; [17]) | Pre-emergence action against MATIN in % (MATIN [3]; dosage 80 g/ha) | Pre-emergence action against VIOTR in % (VIOTR) | Post-emergence action against ALOMY in % (ALOMY [10]) | Post-emergence action at 20 g/ha against AMARE in % (AMARE [6]) | Pre-emergence action against MATIN in % (MATIN [3]; dosage 20 g/ha) | Pre-emergence action against ABUTH (herbicidal activity) (ABUTH [1]) | Pre-emergence action against ABUTH (herbicidal activity in percent) (ABUTH [1]) | Pre-emergence action against ALOMY (herbicidal activity) (ALOMY [11]) | Pre-emergence action against AMARE in % (AMARE [2]; [15]) | Pre-emergence action against ECHCG in % (ECHCG [12]) | Pre-emergence action against SETVI in % (SETVI [13]) | Pre-emergence action against DIGSA in % (DIGSA [4]; dosage 80 g/ha) | Post-emergence action against PHBPU in % (PHBPU) | also measured
Cc1c(C(=O)Nc2nnnn2C)ccc(C(F)(F)F)c1C(=O)NC1COC1 [Example 1-41] |  |  |  |  |  |  |  |  |  |  |  |  |  |  | pest or weed control at 80 g/ha (ABUTH [1]): 100%; pest or weed control at 20 g/ha (AMARE [2]; [15]): 90%; pest or weed control at 80 g/ha (AMARE [2]; [16]): 100%; pest or weed control at 80 g/ha (MATIN [3]; dosage 80 g/ha): 100%; pest or weed control at 80 g/ha (VERPE): 90%; pest or weed control at 80 g/ha (VIOTR): 100%; pest or weed control at 80 g/ha (DIGSA [4]; Digitaria sanguinalis, 504 h, dosage 80 g/ha): 100%; pest or weed control at 5 g/ha (ABUTH [5]; Abutilon theophrasti, 504 h, dosage 5 g/ha): 80%; pest or weed control at 20 g/ha (ABUTH [5]; Abutilon theophrasti, 504 h, dosage 20 g/ha): 80%; pest or weed control at 20 g/ha (AMARE [6]): 90%; pest or weed control at 20 g/ha (ECHCG [7]; dosage 20 g/ha): 90%; pest or weed control at 20 g/ha (SETVI [8]; dosage 20 g/ha): 80%; pest or weed control at 5 g/ha (DIGSA [9]; Digitaria sanguinalis, 504 h, 5 g/ha): 80%; pest or weed control at 20 g/ha (DIGSA [9]; Digitaria sanguinalis, 504 h, 20 g/ha): 90%
CN(C)C(=O)CNC(=O)c1c(C(F)(F)F)ccc(C(=O)Nc2nnnn2C)c1Cl [Example 1-142] | 100% | 90% | 90% | 90% | 90% |  |  |  |  |  |  |  |  |  | 
CCNC(=O)c1c(Cl)ccc(C(=O)Nc2nnnn2C)c1Br [Example 1-350] |  |  |  |  |  |  |  |  |  |  |  |  |  |  | pest or weed control at 80 g/ha (ABUTH [1]): 100%; pest or weed control at 80 g/ha (ALOMY [11]; Alopecurus myosuroides, 504 h): 100%; pest or weed control at 20 g/ha (AMARE [2]; [15]): 100%; pest or weed control at 80 g/ha (AMARE [2]; [16]): 100%; pest or weed control at 80 g/ha (AVEFA; Avena fatua, 504 h): 90%; pest or weed control at 80 g/ha (ECHCG [12]; Echinochloa crus-galli, 504 h): 100%; pest or weed control at 80 g/ha (MATIN [3]; dosage 80 g/ha): 90%; pest or weed control at 80 g/ha (SETVI [13]; Setaria viridis, 504 h): 100%; pest or weed control at 80 g/ha (VERPE): 80%; pest or weed control at 80 g/ha (VIOTR): 100%; pest or weed control at 20 g/ha (AMARE [6]): 100%; pest or weed control at 20 g/ha (ECHCG [7]; dosage 20 g/ha): 80%; pest or weed control at 20 g/ha (SETVI [8]; dosage 20 g/ha): 80%
CCn1nnnc1NC(=O)c1ccc(C(F)(F)F)c(C(=O)NCC(=O)N(C)C)c1Cl [Example 2-142] | 100% | 100% | 100% | 80% | 100% | 80% |  |  |  |  |  |  |  |  | 
CCn1nnnc1NC(=O)c1ccc(C(F)F)c(C(=O)NCC(F)(F)F)c1Br [Example 2-229] | 100% | 100% | 100% |  | 90% | 100% | 100% | 80% | 90% | 100% | 80% | 100% | 100% | 90% | Pre-emergence action against AVEFA in % (AVEFA): 90%; Pre-emergence action against VERPE in % (VERPE): 80%; Post-emergence action against ABUTH in % (ABUTH [5]; dosage 20 g/ha): 80%; Post-emergence action against ECHCG in % (ECHCG [7]; dosage 20 g/ha): 90%; Post-emergence action against MATIN in % (MATIN [14]): 80%; Post-emergence action against SETVI in % (SETVI [8]; dosage 20 g/ha): 80%
Cc1nnc(NC(=O)c2ccc(Br)c(C(=O)NCC(F)F)c2Cl)o1 [Example 6-145] | 100% |  |  | 80% |  |  | 100% | 100% | 90% | 90% | 90% | 100% | 100% | 80% | Pre-emergence action against DIGSA in % (DIGSA [4]; dosage 20 g/ha): 90%; Post-emergence action against SETVI in % (SETVI [8]; dosage 5 g/ha): 80%; Post-emergence action against SETVI in % (SETVI [8]; dosage 20 g/ha): 90%
Cc1nnc(NC(=O)c2ccc(C(F)F)c(C(=O)NC(C)C)c2Cl)o1 [Example 6-260] | 100% | 100% |  |  | 80% | 100% | 100% | 90% | 90% | 100% | 100% | 100% | 100% | 90% | Pre-emergence action against VERPE in % (VERPE): 90%; Pre-emergence action against DIGSA in % (DIGSA [4]; dosage 20 g/ha): 100%; Post-emergence action against ABUTH in % (ABUTH [5]; dosage 20 g/ha): 90%; Post-emergence action against ECHCG in % (ECHCG [7]; dosage 5 g/ha): 90%; Post-emergence action against ECHCG in % (ECHCG [7]; dosage 20 g/ha): 90%; Post-emergence action against MATIN in % (MATIN [14]): 80%; Post-emergence action against DIGSA in % (DIGSA [9]; 5 g/ha): 90%; Post-emergence action against DIGSA (DIGSA [9]; 20 g/ha): 90%
